The values that follow come from US20030130698A1, “Method for screening therapeutic agents for modulation of ejaculatory response” (priority 2002, published 2003).

Test [1] relates to male mice. The test is described as follows: Electroejaculation test after oral administration of diarylmethylpiperazine compounds (35 Hz, 3 to 8 volts). It counts as in vivo, mouse. The settings on record: for Effective Dose: oral administration, stimulation about 20 minutes after dosing, 3 to 8 volts in 0.5 volt increments; for Ejaculation Inhibition %: relative to control group, at the effective dose of the same line, oral, about 20 minutes after dosing, 3 to 8 volts. The method, then: (§1) Male, CD-1 mice (20-30 g) were housed in groups of ten (10) in Plexiglas® chambers with food and water available before any procedure. Animals were maintained on a 12 hour light/dark cycle in a temperature-controlled animal colony. Studies were carried out in accordance with the Guide for the Care and Use of Laboratory animals as adopted and promulgated by the National Institutes of Health.
(§2) Specifically, the bipolar electrode probe is an approximately 5 cm long tube having an outer diameter of approximately 0.2388 cm with an inner diameter of approximately 0.0787 cm and a wall thickness of […].
A testing mouse was restrained in a cone bag with rear legs extending from the bag. Excess fecal matter was removed from the rectum and a lubricated bipolar electrode was inserted approximately […] into the rectum. An oscillating current of 40 Hz was utilized for electrical stimulation starting at 3 volts with a gradual increase to 8 volts by increments of 0.5 volts, as shown in Table 1. The stimulation regime included 4 stimulating events for each voltage lasting 2 seconds with a rest period of 2 seconds between stimulating events. A white coagulum ejaculate from the penis indicated a successful ejaculation. If ejaculation occurred before reaching the 8 volt terminal voltage, the testing was stopped.
Further testing was conducted on a multiple diarylmethylpiperazine compounds according to the testing procedure setforth above wherein the stimulating protocol comprised multiple operating cycles of alternating stimulation periods and rest periods during which the operating voltage of each operating cycle increased in comparison with that of the immediately preceding operating cycle. Electroejaculation stimulation was conducted at 35 Hz oscillating frequency, starting at 3 volts with a gradual increase to 8 volts by increments of 0.5 volts and occurred about 20 minutes after oral administration. The results, showing ejaculation inhibition relative to that of the control group, are compiled in Table 2.

Test [2] has as its system male mice. The test is described as follows: Electroejaculation test after subcutaneous SNC-80 (40 Hz, 3 to 8 volts). Format: in vivo, mouse. The settings on record: terminal voltage 8 volts, FIG. 3. The method, then:
as §1, §2
SNC-80 was dissolved in 5% dextrose injection solution. Equal molar of HCL was added when the manufacturer packaged the compound in a base form. The placebo was prepared in a similar manner without the test drug 10 minutes after the injection, the test mouse was subjected to electrostimulation. Ten mice were tested for each dose level, the order of each mouse receiving different doses was blinded and in a random manner.
A testing mouse was restrained in a cone bag with rear legs extending from the bag. Excess fecal matter was removed from the rectum and a lubricated bipolar electrode was inserted approximately 2.5 into the rectum. […]

Test [3] addresses delta opioid receptor (Homo sapiens, UniProt P41143). The settings on record: delta opioid receptor agonist versus mu opioid receptors; cited from earlier work.
Test [4] relates to mouse vas deferens smooth muscle. The settings on record: in vitro; cited from earlier work.

Chain of delta opioid receptor (P41143 whole entry): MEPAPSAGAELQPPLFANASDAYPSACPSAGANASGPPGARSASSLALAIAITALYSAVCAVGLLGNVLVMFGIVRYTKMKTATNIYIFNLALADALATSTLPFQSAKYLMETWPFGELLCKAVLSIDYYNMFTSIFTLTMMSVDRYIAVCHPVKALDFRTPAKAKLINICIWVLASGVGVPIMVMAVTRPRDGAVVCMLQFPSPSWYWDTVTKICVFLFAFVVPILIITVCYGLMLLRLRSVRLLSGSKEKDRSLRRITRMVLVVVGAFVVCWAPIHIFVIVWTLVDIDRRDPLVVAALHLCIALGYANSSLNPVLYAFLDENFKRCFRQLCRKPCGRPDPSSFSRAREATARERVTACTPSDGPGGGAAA

For `C=CCN1C[C@H](C)N([C@H](c2ccc(C(=O)N(CC)CC)cc2)c2cccc(OCC(=O)O)c2)C[C@H]1C` [3-((alpha-R)-alpha-((2S,5R)-4-Allyl-2,5-dimethyl-1-piperazinyl)-4-(diethylamino-carbonyl)benzyl)phenoxyacetic acid], in test [1], the “Effective Dose” value is listed as 0.01 mg/kg and the “Ejaculation Inhibition %” value is listed as 45%.

In the case of `CCN(CC)C(=O)c1ccc([C@H](c2cccc(OCC(=O)O)c2)N2C[C@@H](C)N(Cc3ccccc3)C[C@@H]2C)cc1` [3-((alpha-R)-alpha-((2S,5R)-4-Benzyl-2,5-dimethyl-1-piperazinyl)-4-(diethylaminocarbonyl)benzyl)phenoxyacetic acid], in test [1], the “Effective Dose” value is given as 3 mg/kg and the “Ejaculation Inhibition %” value was determined as 66%.

Consider `CCN(CC)C(=O)c1ccc([C@@H](c2ccccc2)N2C[C@H](C)N(Cc3cccc(F)c3)C[C@H]2C)cc1` [4-((alpha-R)-alpha-((2R,5 S)-2,5-Dimethyl-4-(3-fluorobenzyl)-1-piperazinyl)benzyl)-N,N-diethylbenzamide], for which, in test [1], the “Effective Dose” value is 0.4 mg/kg and the “Ejaculation Inhibition %” value is given as 75%.

On to `CCN(CC)C(=O)c1ccc([C@H](c2cccc(OC)c2)N2C[C@@H](C)N(Cc3ccccc3F)C[C@@H]2C)cc1` [4-((alpha-R)-alpha-((2S,5R)-2,5-Dimethyl-4-(2-fluorobenzyl)-1-piperazinyl)-3-methoxybenzyl)-N,N-diethylbenzamide], for which, in test [1], the “Effective Dose” value was 10 mg/kg and the “Ejaculation Inhibition %” value is reported as 50%.

In the case of `CCN(CC)C(=O)c1ccc([C@H](c2cccc(O)c2)N2C[C@@H](C)N(Cc3cccc(F)c3)C[C@@H]2C)cc1` [4-((alpha-R)-alpha-((2S,5R)-2,5-Dimethyl-4-(3-fluorobenzyl)-1-piperazinyl)-3-hydroxybenzyl)-N,N-diethylbenzamide], in test [1], the “Effective Dose” value is given as 3 mg/kg and the “Ejaculation Inhibition %” value stood at 60%.

In the case of `CCN(CC)C(=O)c1ccc([C@H](c2cccc(OC)c2)N2C[C@@H](C)N(Cc3ccc(F)cc3)C[C@@H]2C)cc1` [4-((alpha-R)-alpha-((2S,5R)-2,5-Dimethyl-4-(4-fluorobenzyl)-1-piperazinyl)-3-methoxybenzyl)-N,N-diethylbenzamide], in test [1], the “Effective Dose” value is 3 mg/kg and the “Ejaculation Inhibition %” value is reported as 38%.

For the molecule `CCN(CC)C(=O)c1ccc([C@H](c2ccccc2)N2C[C@@H](C)N(Cc3ccc(O)cc3)C[C@@H]2C)cc1` [4-((alpha-S)-alpha-((2S,5R)-2,5-Dimethyl-4-(4-hydroxybenzyl)-1-piperazinyl)-benzyl)-N,N-diethylbenzamide], in test [1], the “Effective Dose” value was determined as 3 mg/kg and the “Ejaculation Inhibition %” value was 50%.

As to `CCN(CC)C(=O)c1ccc([C@H](c2cccc(O)c2)N2C[C@@H](C)N(CC3CC3)C[C@@H]2C)cc1` [4-(alpha-R)-alpha-((2S,5R)-4-(Cyclopropylmethyl)-2,5-dimethyl-1-piperazinyl)-3-hydroxybenzyl)-N,N-diethylbenzamide], in test [1], the “Effective Dose” value is 0.3 mg/kg and the “Ejaculation Inhibition %” value is recorded as 60%.

As for `CCN(CC)C(=O)c1ccc([C@H](c2cccc(OC)c2)N2C[C@@H](C)N(Cc3ccccc3)C[C@@H]2C)cc1` [4-(alpha-R)-alpha-((2S,5R)-4-Benzyl-2,5-dimethyl-1 piperazinyl)-3-methoxybenzyl)-N,N-diethylbenzamide], in test [1], the “Effective Dose” value turned out to be 3 mg/kg and the “Ejaculation Inhibition %” value stood at 33%.

On to `C=CCN1C[C@@H](C)N([C@H](c2ccc(S(=O)(=O)N(C)C)cc2)c2cccc(O)c2)C[C@@H]1C` [4-[(R)-((2R,5S)-4-Allyl-2,5-diimethylpiperazin-1-yl)(3-hydroxyphenyl)methyl]-N,N-dimethylbenzenesulfonamide], for which, in test [1], the “Effective Dose” value was found to be 0.3 mg/kg and the “Ejaculation Inhibition %” value came to 50%.

As to `C=CCN1C[C@H](C)N([C@H](c2ccc(C(=O)N(CC)CC)cc2)c2cccc(OC)c2)C[C@H]1C` [SNC-80, (+)-4-[(αR)-α-((2S,5R)-4-Allyl-2,5-dimethyl-1-piperazinyl)-3-methoxybenzyl]-N,N-diethyl benzamide], the “inhibitory effect on ejaculation at reduced dose” value in test [2] (0.1 mg/kg subcutaneous) is reported as “inhibitory effect diminished”. Also, the “occurrence of ejaculation compared to control group” value in test [2] (1 mg/kg subcutaneous) is on record as “significantly reduced the occurrence of ejaculation”. Moreover, the “selectivity over mu opioid receptors” value in test [3] is 2000 fold. In test [4], the “contraction of mouse vas deferens smooth muscle” value is recorded as “block the contraction”.
